The values below come from patent EP2439197A1, “Substituted benzimidazole derivatives as melanocortin 4 receptor antagonists” (Santhera Pharmaceuticals (Schweiz) AG, priority 2010, dated 2012).

The target of assay [1] is T1, hMC-4R (Homo sapiens, UniProt P32245).
T1 construct: expressed in transfected cells; host or cells: HEK293 cells (membrane preparations)
The assay can be described thus: functional assay, homogeneous membrane based cAMP fluorescence polarization assay. Format: biochemical. The following applies: for Emax: read-out: % activation functional assay.

For assay [2], the target named is T1, hMC-4R. The assay is described as follows: membrane binding assay, competition with fluorescence labeled NDP-alpha-MSH (fluorescence polarization). The following applies: for IC50: HEK293 cell membrane preparations expressing human melanocortin receptors, read-out: hMC-4R binding assay IC50/µM. As to the method: A membrane binding assay is used to identify competitive inhibitors of fluorescence labeled NDP-alpha-MSH binding to HEK293 cell membrane preparations expressing human melanocortin receptors.
The test compound or unlabeled NDP-alpha-MSH is dispensed at varying concentrations to a 384 well microtiter plate. Fluorescence labeled NDP-alpha-MSH is dispensed at a single concentration, followed by addition of membrane preparations. The plate is incubated for 5 h at room temperature.
The degree of fluorescence polarization is determined with a fluorescence polarization microplate reader.
A general note: Fluorescence polarisation rises when a labelled molecule tumbles more slowly, as on binding a larger partner.

pEC50, pIC50: −log10 of the molar value. Read-outs that look alike come from different tables or passages of the source.

T1 sequence (P32245 whole entry): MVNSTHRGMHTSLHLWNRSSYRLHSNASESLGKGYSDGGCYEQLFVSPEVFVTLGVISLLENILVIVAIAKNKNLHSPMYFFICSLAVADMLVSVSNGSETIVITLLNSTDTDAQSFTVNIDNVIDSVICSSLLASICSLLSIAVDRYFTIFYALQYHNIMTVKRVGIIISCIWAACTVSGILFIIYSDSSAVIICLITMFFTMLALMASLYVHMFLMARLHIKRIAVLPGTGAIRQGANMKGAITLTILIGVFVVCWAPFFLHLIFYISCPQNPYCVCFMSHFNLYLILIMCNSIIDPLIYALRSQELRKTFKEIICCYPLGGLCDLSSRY

The term pIC50 denotes the negative decadic logarithm of the IC50, by convention in mol/L. In the case of `CC(C)CCN(CCC(C)C)C(=O)c1ccc2nc(-c3ccc(=O)[nH]c3)n(CC(O)CN3CCCC3)c2c1` (stereo not shown) [Example 1], the Emax on hMC-4R [1] is -15%. Further, the pIC50 on hMC-4R [2] is above 6.00.

With `CC(C)CCN(CCC(C)C)C(=O)c1ccc2nc(-c3ccc(=O)[nH]c3)n(CC(F)CN3CCCC3)c2c1` (stereo not shown) [Example 2], the Emax at hMC-4R [1] is -11%. Moreover, the pIC50 on hMC-4R [2] is above 7.00.

For the compound `COc1ccc(-c2nc3ccc(C(=O)N(CCC(C)C)CCC(C)C)cc3n2CC(O)CN2CCCC2)cn1` (stereo not shown) [Example 3], the EC50 on hMC-4R [1] (membrane preparations from HEK293 cells, cAMP production, read-out: hMC-4R functional assay EC50/µM) lay in the range of 0.1 to 1 µM. Moreover, the Emax at hMC-4R [1] was -25%. For the same compound, the IC50 at hMC-4R [2] was below 0.1 µM.

Broadly, the pEC50 is the negative decadic logarithm of the EC50, by convention in mol/L. High values mean a low EC50, low ones a high EC50. For `CC(C)CCN(CCC(C)C)C(=O)c1ccc2nc(-c3ncco3)n(CC(O)CN3CCCC3)c2c1` (stereo not shown) [Example 4], at hMC-4R [1], the pEC50 was above 7.00 and the Emax is -28%. This compound also gave a pIC50 at hMC-4R [2] above 7.00.

In the case of `COc1cc(C2(c3nc4ccc(C(=O)N(CCC(C)C)CCC(C)C)cc4n3CCCN3CCCC3)CC2)ccn1` [Example 5], the Emax at hMC-4R [1] is -6%. The compound also showed a pIC50 at hMC-4R [2] above 6.00.

As for `COc1ccc(C2(c3nc4ccc(C(=O)N(CCC(C)C)CCC(C)C)cc4n3CCCN3CCCC3)CC2)cn1` [Example 6], the Emax on hMC-4R [1] was -11%. The same compound showed a pIC50 on hMC-4R [2] above 6.00.

Regarding `CC(C)CCN(CCC(C)C)C(=O)c1ccc2nc(N3CCN(C)CC3)n(CCCN3CCCC3)c2c1` [Example 7], the Emax at hMC-4R [1] was -4%. In addition, on hMC-4R [2], the pIC50 was 5.00 to 6.00.

Regarding `CC(C)CCN(CCC(C)C)C(=O)c1ccc2nc(CN3CCN(C)CC3)n(CCCN3CCCC3)c2c1` [Example 8], at hMC-4R [1], the Emax was -6%. Moreover, the IC50 on hMC-4R [2] was below 0.1 µM.

As for `CC(C)CCN(CCC(C)C)C(=O)c1ccc2nc(CN3CCN(CCO)CC3)n(CCCN3CCCC3)c2c1` [Example 9], the Emax on hMC-4R [1] was -9%. Further, the pIC50 at hMC-4R [2] was above 7.00.

As to `CC(C)CCN(CCC(C)C)C(=O)c1ccc2nc(CN3CCN(C(C)C)CC3)n(CCCN3CCCC3)c2c1` [Example 10], the Emax on hMC-4R [1] came to 0%. The compound also had a pIC50 at hMC-4R [2] above 6.00.

Regarding `CC(C)CCN(CCC(C)C)C(=O)c1ccc2nc(C3CCN(C(=O)OC(C)(C)C)CC3)n(CCCN3CCCC3)c2c1` [Example 11], at hMC-4R [1], the pEC50 is above 7.00 and the Emax is -33%. Besides, the pIC50 at hMC-4R [2] is above 7.00.

`CC(C)CCN(CCC(C)C)C(=O)c1ccc2nc(C3CCN(C(=O)OC(C)(C)C)CC3)n(CCCN3CCCC3C)c2c1` (stereo not shown) [Example 12]: at hMC-4R [1], the pEC50 is above 7.00 and the Emax was -40%. At hMC-4R [2], this compound showed a pIC50 above 7.00.

Turning to `CC(C)CCN(CCC(C)C)C(=O)c1ccc2nc(CC3CCN(C(=O)OC(C)(C)C)CC3)n(CCCN3CCCC3)c2c1` [Example 13], the Emax on hMC-4R [1] is -7%. The pIC50 on hMC-4R [2] was above 7.00.

As to `CC(C)CCN(CCC(C)C)C(=O)c1ccc2nc(CC3CCN(CCO)CC3)n(CCCN3CCCC3)c2c1` [Example 14], the Emax at hMC-4R [1] was -18%. At hMC-4R [2], this compound gave a pIC50 above 7.00.

Consider `CC(C)CCN(CCC(C)C)C(=O)c1ccc2nc(CC3CCN(C4COC4)CC3)n(CCCN3CCCC3)c2c1` [Example 15], for which the Emax on hMC-4R [1] was -11%. At hMC-4R [2], this compound gave a pIC50 above 7.00.

Take `CC(C)CCN(CCC(C)C)C(=O)c1ccc2nc(C3CN(C(=O)OC(C)(C)C)C3)n(CCCN3CCCC3)c2c1` [Example 16]: the Emax on hMC-4R [1] is -9%. In addition, the IC50 at hMC-4R [2] was below 0.1 µM.

On to `CC(C)CCN(CCC(C)C)C(=O)c1ccc2nc([C@H]3CC[C@H](N(C)C)CC3)n(CCCN3CCCC3)c2c1` [Example 17], for which, at hMC-4R [1], the Emax is -6%. This compound showed a pIC50 at hMC-4R [2] above 7.00.

On to `CC(C)CCN(CCC(C)C)C(=O)c1ccc2nc([C@H]3CC[C@@H](N(C)C)CC3)n(CCCN3CCCC3)c2c1` [Example 18], for which the Emax at hMC-4R [1] is -19%. At hMC-4R [2], the pIC50 is above 7.00.

On to `CCCCN(CCCC)C(=O)c1ccc2nc(CC3CCN(C(=O)OC(C)(C)C)CC3)n(CCCN3CCCC3)c2c1` [Example 19], for which, at hMC-4R [1], the pEC50 is above 7.00 and the Emax was -33%. On hMC-4R [2], this compound had a pIC50 above 7.00.

Regarding `CCCCN(CCCC)C(=O)c1ccc2nc(CC3CCN(C4COC4)CC3)n(CCCN3CCCC3)c2c1` [Example 20], at hMC-4R [1], the Emax worked out at 0%. The compound further gave a pIC50 on hMC-4R [2] above 6.00.

For `CC(C)CCN(CCC(C)C)C(=O)c1ccc2nc(-c3ccc(=O)[nH]c3)n(CCCN3CCCC3)c2c1` [Example 21], the Emax at hMC-4R [1] is -14%. In addition, the pIC50 at hMC-4R [2] was above 7.00.

For the compound `CC(C)CCN(CCC(C)C)C(=O)c1ccc2nc(-c3ccc(=O)[nH]c3)n(CCCN3CCCCC3)c2c1` [Example 22], on hMC-4R [1], the Emax is -12%. In addition, at hMC-4R [2], the IC50 was below 0.1 µM.

For `CC(C)CCN(CCC(C)C)C(=O)c1ccc2nc(C3CCNCC3)n(CCCN3CCCC3)c2c1` [Example 23], on hMC-4R [1], the pEC50 was above 7.00 and the Emax was -39%. Further, the pIC50 at hMC-4R [2] was above 7.00.

Regarding `CC(C)CCN(CCC(C)C)C(=O)c1ccc2nc(C3CCN(C)CC3)n(CCCN3CCCC3)c2c1` [Example 24], at hMC-4R [1], the pEC50 was above 7.00 and the Emax was -44%. On hMC-4R [2], this compound had a pIC50 above 7.00.

As for `CC(C)CCN(CCC(C)C)C(=O)c1ccc2nc(-c3ccc(=O)[nH]c3)n(CCCN3CCCC3C)c2c1` (stereo not shown) [Example 25], at hMC-4R [1], the pEC50 was above 7.00 and the Emax was -37%. At hMC-4R [2], this compound gave a pIC50 above 7.00.

Regarding `CC(C)CCN(CCC(C)C)C(=O)c1ccc2nc(C3CCNCC3)n(CCCN3CCCC3C)c2c1` (stereo not shown) [Example 26], the Emax at hMC-4R [1] was -12%. Besides, the pIC50 on hMC-4R [2] was above 7.00.

Consider `CC(C)CCN(CCC(C)C)C(=O)c1ccc2nc(C3CCN(C)CC3)n(CCCN3CCCC3C)c2c1` (stereo not shown) [Example 27], for which the Emax on hMC-4R [1] is -2%. Besides, the IC50 on hMC-4R [2] is below 0.1 µM.

`CC(C)CCN(CCC(C)C)C(=O)c1ccc2nc(CC3CCNCC3)n(CCCN3CCCC3)c2c1` [Example 28]: the Emax on hMC-4R [1] was -6%. Besides, at hMC-4R [2], the IC50 is below 0.1 µM.

As to `CC(C)CCN(CCC(C)C)C(=O)c1ccc2nc(CC3CCN(C)CC3)n(CCCN3CCCC3)c2c1` [Example 29], the Emax on hMC-4R [1] was -10%. Moreover, the pIC50 on hMC-4R [2] was above 7.00.

As to `CC(C)CCN(CCC(C)C)C(=O)c1ccc2nc(-c3cnc(O)nc3)n(CCCN3CCCC3)c2c1` [Example 30], the Emax at hMC-4R [1] is -12%. At hMC-4R [2], this compound showed a pIC50 above 6.00.

With `CC(C)CCN(CCC(C)C)C(=O)c1ccc2nc(C3CNC3)n(CCCN3CCCC3)c2c1` [Example 31], at hMC-4R [1], the pEC50 was 6.00 to 7.00 and the Emax is -32%. On hMC-4R [2], this compound gave a pIC50 above 7.00.

As for `CC(C)CCN(CCC(C)C)C(=O)c1ccc2nc(C3CN(C)C3)n(CCCN3CCCC3)c2c1` [Example 32], at hMC-4R [1], the pEC50 was above 7.00 and the Emax was -18%. Besides, on hMC-4R [2], the pIC50 was above 7.00.

For `COc1cc(Cc2nc3ccc(C(=O)N(CCC(C)C)CCC(C)C)cc3n2CCCN2CCCC2)ccn1` [Example 33], the Emax at hMC-4R [1] is 0%. Moreover, at hMC-4R [2], the pIC50 was above 7.00.

In the case of `CC(C)CCN(CCC(C)C)C(=O)c1ccc2nc(C3CNC(=O)C3)n(CCCN3CCCC3)c2c1` (stereo not shown) [Example 34], at hMC-4R [1], the Emax was -10%. The same compound gave a pIC50 on hMC-4R [2] above 7.00.

On to `CC(C)CCN(CCC(C)C)C(=O)c1ccc2nc(C3CCC(=O)NC3)n(CCCN3CCCC3)c2c1` (stereo not shown) [Example 35], for which the Emax on hMC-4R [1] is -11%. The pIC50 at hMC-4R [2] was above 6.00.

On to `CC(C)CCN(CCC(C)C)C(=O)c1ccc2nc(C3CCN(C)C(=O)C3)n(CCCN3CCCC3)c2c1` (stereo not shown) [Example 36], for which the Emax at hMC-4R [1] was -5%. At hMC-4R [2], this compound showed a pIC50 above 6.00.

`CC(C)CCN(CCC(C)C)C(=O)c1ccc2nc(C3CCC(=O)N(C)C3)n(CCCN3CCCC3)c2c1` (stereo not shown) [Example 37]: the Emax on hMC-4R [1] was -2%. On hMC-4R [2], this compound gave a pIC50 above 6.00.

As to `CCCCN(CCCC)C(=O)c1ccc2nc(CC3CCNCC3)n(CCCN3CCCC3)c2c1` [Example 38], the Emax at hMC-4R [1] was -5%. Moreover, the pIC50 at hMC-4R [2] is above 7.00.

Consider `CCCCN(CCCC)C(=O)c1ccc2nc(CC3CCN(C)CC3)n(CCCN3CCCC3)c2c1` [Example 39], for which, at hMC-4R [1], the Emax was -8%. The pIC50 on hMC-4R [2] is above 7.00.
